This assay concerns tyrosinase from mushroom. Briefly: Inhibition of tyrosinase, absorbancy at 475 nm with tyrosine substrate. The assay is classed as biochemical. The following applies: for percent inhibition of the tyrosinase: pH 6.8 sodium acetate buffer, Example 1. On the procedure:
A buffer solution A containing 50 mM sodium acetate was prepared to yield a 6.8 pH.
A test tube was charged with 2.7 ml of buffer solution A and 0.4 ml. water to define a blank. Similarly, another test tube was charged with 2.7 ml. of the tyrosine solution, 0.3 ml of water, and 0.1 ml of the tyrosinase solution to define a reference. The absorbency of the reference was measured at 475 nm over a period of time with a spectrophotometer and the absorbancy was set to zero.
A test tube was charged with 2.7 ml of the tyrosine solution, 0.1 ml. of the tyrosinase solution and 0.02% of mercaptosuccinic acid together with 0.5% acerola cherry fermentate.

The values that follow come from patent publication US5747006A, “Skin whitener composition containing acerola cherry fermentate” (Amway Corporation, priority 1997, dated 1998).

Molecules are shown by their SMILES.

`O=c1cc(CO)occ1O` [Comparative Example 2, kojic acid]: the “Percent Inhibition (0.5 hours)” value (0.5 hours, Table 1) is listed as 91. Moreover, the “Percent Inhibition (24 hours)” value (24 hours, Table 1) was 92.

With `O=C(O)CC(S)C(=O)O` (stereo not shown) [compound 1, mercaptosuccinic acid], the “percent inhibition of the tyrosinase” value turned out to be 95% (0.5 hours) and 77% (24 hours).
